In patent US20250326732A1 (Pretzel Therapeutics, Inc., priority 2021, published 2025) one finds IC50 data, which are given here for 41 compounds.

For this assay, the target named is POLRMT (Homo sapiens (Human), UniProt O00411). In words: homogeneous TR-FRET assay of mitochondrial transcription (inhibition of POLRMT). Type of assay: biochemical. As to conditions: 7.5 nM POLRMT, 15 nM TFB2M, 30 nM TFAM, 0.5 nM DNA template, 500 μM NTPs, 37° C. for 60 minutes. In outline: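 POLRMT transcription from linearized pUC-LSP DNA template; RNA product detected by hybridization of ATTO647 acceptor (1 nM) and biotinylated donor (3 nM) probes plus Europium-streptavidin. Reaction stopped with EDTA/700 mM NaCl buffer, pH 7.5.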
POLRMT, sequence (O00411 42-1230): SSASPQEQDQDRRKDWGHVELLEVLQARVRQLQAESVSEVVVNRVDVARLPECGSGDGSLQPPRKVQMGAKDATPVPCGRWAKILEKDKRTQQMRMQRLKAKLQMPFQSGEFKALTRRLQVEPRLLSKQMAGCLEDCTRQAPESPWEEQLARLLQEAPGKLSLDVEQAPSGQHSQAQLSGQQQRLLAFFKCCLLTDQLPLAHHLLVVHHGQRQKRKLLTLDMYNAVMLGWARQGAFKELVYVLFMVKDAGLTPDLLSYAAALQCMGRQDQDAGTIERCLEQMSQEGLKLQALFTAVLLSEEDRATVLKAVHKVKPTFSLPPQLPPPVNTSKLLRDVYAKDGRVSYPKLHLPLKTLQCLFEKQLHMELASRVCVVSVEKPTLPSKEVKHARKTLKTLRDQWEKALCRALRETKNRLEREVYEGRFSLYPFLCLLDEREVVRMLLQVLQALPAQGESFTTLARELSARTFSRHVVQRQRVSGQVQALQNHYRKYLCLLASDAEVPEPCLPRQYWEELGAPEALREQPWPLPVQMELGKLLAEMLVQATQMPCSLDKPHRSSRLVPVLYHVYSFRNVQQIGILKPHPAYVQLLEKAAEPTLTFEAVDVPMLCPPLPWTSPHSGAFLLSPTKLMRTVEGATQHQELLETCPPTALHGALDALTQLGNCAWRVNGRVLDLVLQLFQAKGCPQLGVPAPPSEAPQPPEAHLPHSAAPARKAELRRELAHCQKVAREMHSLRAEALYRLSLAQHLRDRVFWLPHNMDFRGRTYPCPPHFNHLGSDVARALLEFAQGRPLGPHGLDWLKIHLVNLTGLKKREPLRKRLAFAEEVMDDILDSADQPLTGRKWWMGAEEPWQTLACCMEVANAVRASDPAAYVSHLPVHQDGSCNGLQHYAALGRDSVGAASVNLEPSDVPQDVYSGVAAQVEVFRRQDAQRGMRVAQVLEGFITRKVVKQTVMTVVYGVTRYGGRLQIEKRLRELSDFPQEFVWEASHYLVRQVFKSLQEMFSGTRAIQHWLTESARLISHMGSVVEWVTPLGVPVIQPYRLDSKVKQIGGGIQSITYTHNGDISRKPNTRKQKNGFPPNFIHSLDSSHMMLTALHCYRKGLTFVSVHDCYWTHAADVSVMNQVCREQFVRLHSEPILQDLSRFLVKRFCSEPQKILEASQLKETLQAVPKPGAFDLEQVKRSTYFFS
Background: In TR-FRET formats the signal depends on donor and acceptor labels being close together.

One may read the IC50 as the concentration that gives 50% inhibition. Low readings indicate greater potency, high ones weaker potency.

As for `CC[C@H](Nc1ccc2c(-c3ccccc3C)cc(=O)oc2c1)C(N)=O` [Example 212, (S)-2-((2-oxo-4-(o-tolyl)-2H-chromen-7-yl)amino)butanamide], the IC50 worked out at 0.6 µM.

Compound `Cc1ccccc1-c1cc(=O)oc2cc(CC(C)C(=O)N3CC[C@H](C(=O)O)C3)ccc12` (single isomer, unassigned) [Example 100] displayed an IC50 of 21 µM.

Consider `Cc1ccccc1-c1cc(=O)oc2cc(CC(C#N)CO)ccc12` (centres unmarked) [Example 200, 3-hydroxy-2-((2-oxo-4-(o-tolyl)-2H-chromen-7-yl)methyl)propanenitrile], for which half-maximal inhibition (IC50) required 3 µM.

As for `Cc1ccccc1-c1cc(=O)oc2cc(N(C)CC(C)C(=O)O)ccc12` (single isomer, unassigned) [Example 154-2], the IC50 was 0.5 µM. Against the preceding compound, the IC50 is about 6-fold lower.

`Cc1ccccc1-c1cc(=O)oc2cc(C(C)CC(=O)N3CCC[C@H](C(=O)O)C3)ccc12` (single isomer, unassigned) [Example 82] displayed an IC50 of 5 µM.

The compound `CCOC(=O)/C=C/c1ccc2c(-c3ccccc3C)cc(=O)oc2c1` [Example 53, ethyl (E)-3-(2-oxo-4-(o-tolyl)-2H-chromen-7-yl)acrylate] registered an IC50 of 2 µM. Compared with the last compound, the IC50 is about 2.5-fold lower.

In turn, `CCOC(=O)[C@H]1C[C@@H]1c1ccc2c(-c3ccccc3C)cc(=O)oc2c1` [Example 225, ethyl (1S,2S)-2-(2-oxo-4-(o-tolyl)-2H-chromen-7-yl)cyclopropane-1-carboxylate] returned an IC50 of 0.7 µM. This IC50 lies about 2.9-fold lower than the previous one.

As for `Cc1ccccc1-c1cc(=O)oc2cc(N[C@@H](CC(C)C)C(=O)OC(C)(C)C)ccc12` [Example 60, tert-butyl (2-oxo-4-(o-tolyl)-2H-chromen-7-yl)-L-leucinate], the IC50 amounted to 8 µM. Compared with the last compound, the IC50 is about 11-fold higher.

For `COCC(C(N)=O)N(C)c1ccc2c(-c3ccccc3C)cc(=O)oc2c1` (centres unmarked) [Example 202, 3-methoxy-2-(methyl(2-oxo-4-(o-tolyl)-2H-chromen-7-yl)amino)propanamide], it took 2 µM to reach half-maximal inhibition (IC50).

Compound `CCCNC(=O)c1ccc2c(-c3ccc(F)cc3Cl)cc(=O)oc2c1` [Example 22, 4-(2-chloro-4-fluorophenyl)-2-oxo-N-propyl-2H-chromene-7-carboxamide] yielded an IC50 of 25 µM.

In turn, `Cc1ccccc1-c1cc(=O)oc2cc([C@H]3C[C@H]3C(N)=O)ccc12` (relative stereo) [Example 235, (cis)-2-(2-oxo-4-(o-tolyl)-2H-chromen-7-yl)cyclopropane-1-carboxamide] came in with an IC50 of 2 µM. This IC50 lies about 12-fold lower than the previous one.

On to `Cc1ccccc1-c1cc(=O)oc2cc(C(=O)N(C)Cc3nccn3C)ccc12` [Example 114, N-methyl-N-((1-methyl-1H-imidazol-2-yl)methyl)-2-oxo-4-(o-tolyl)-2H-chromene-7-carboxamide], for which it took 36 µM to reach half-maximal inhibition (IC50).

In turn, `O=C(OCc1ccc2c(-c3ccc(F)cc3Cl)cc(=O)oc2c1)N1CCCCC1` [Example 38, (4-(2-chloro-4-fluorophenyl)-2-oxo-2H-chromen-7-yl)methyl piperidine-1-carboxylate] showed an IC50 of 0.6 µM.

Regarding `CNC(=O)C1CC1c1ccc2c(-c3ccccc3C)cc(=O)oc2c1` (stereo not drawn) [Example 135, chiral-N-methyl-2-(2-oxo-4-(o-tolyl)-2H-chromen-7-yl)cyclopropane-1-carboxamide], the IC50 is 9 µM.

With `Cc1ccccc1-c1cc(=O)oc2cc(N(C)CC(=O)OC(C)(C)C)ccc12` [Example 70, tert-butyl N-methyl-N-(2-oxo-4-(o-tolyl)-2H-chromen-7-yl)glycinate], the IC50 was determined as 0.04 µM.

`Cc1ccccc1-c1cc(=O)oc2cc([C@@H]3C[C@H]3C(=O)O)ccc12` (relative stereo) [Example 227, (trans)-2-(2-oxo-4-(o-tolyl)-2H-chromen-7-yl)cyclopropane-1-carboxylic acid] showed an IC50 of 3 µM.

`Cc1ccccc1-c1cc(=O)oc2cc(CNC(=O)C3CCC(C(=O)O)CC3)ccc12` [Example 152, (1R,4R)-4-(((2-oxo-4-(o-tolyl)-2H-chromen-7-yl)methyl)carbamoyl)cyclohexane-1-carboxylic acid] yielded an IC50 of 0.3 µM.

Regarding `Cc1ccccc1-c1cc(=O)oc2cc([C@H]3C[C@H]3C(=O)O)ccc12` (racemic) [Example 226, (cis)-2-(2-oxo-4-(o-tolyl)-2H-chromen-7-yl)cyclopropane-1-carboxylic acid], the IC50 stood at 0.4 µM. The IC50 values of the last two compounds are within 1.5-fold of each other.

On to `Cc1ccccc1-c1cc(=O)oc2cc(NC(=O)C(C)C)ccc12` [Example 33, N-(2-oxo-4-(o-tolyl)-2H-chromen-7-yl) isobutyramide], for which it took 0.3 µM to reach half-maximal inhibition (IC50). The IC50 values of the last two compounds are within 1.5-fold of each other.

On to `CN(Cc1ccc2c(-c3ccc(F)cc3Cl)cc(=O)oc2c1)C(=O)N1CCC[C@H](C(=O)O)C1` [Example 08, (S)-1-(((4-(2-chloro-4-fluorophenyl)-2-oxo-2H-chromen-7-yl)methyl)(methyl)carbamoyl)piperidine-3-carboxylic acid], for which half-maximal inhibition (IC50) was put at 1 µM.

`CCOC(=O)[C@H]1CCCN(C(=O)[C@@H](C)Oc2cc(C)cc3oc(=O)cc(-c4ccc(F)cc4)c23)C1` [Example 159, ethyl (S)-1-((R)-2-((4-(4-fluorophenyl)-7-methyl-2-oxo-2H-chromen-5-yl)oxy)propanoyl)piperidine-3-carboxylate] gave an IC50 above 100 µM.

The compound `CC(=O)NC[C@@H]1CCN(C(=O)c2ccc3c(-c4ccccc4C)cc(=O)oc3c2)C1` [Example 196, (S)—N-((1-(2-oxo-4-(o-tolyl)-2H-chromene-7-carbonyl)pyrrolidin-3-yl)methyl)acetamide] displayed an IC50 of 42 µM.

The compound `Cc1ccccc1-c1cc(=O)oc2cc(NCc3ccon3)ccc12` [Example 185, 7-((isoxazol-3-ylmethyl)amino)-4-(o-tolyl)-2H-chromen-2-one] showed an IC50 of 0.7 µM.

Compound `Cc1ccccc1-c1cc(=O)oc2cc(C(=O)N(C)C3CCCOC3)ccc12` (centres unmarked) [Example 117, N-methyl-2-oxo-N-(tetrahydro-2H-pyran-3-yl)-4-(o-tolyl)-2H-chromene-7-carboxamide] returned an IC50 of 65 µM.

In turn, `Cc1ccccc1-c1cc(=O)oc2cc(N(C)CC(C)(C)C(=O)O)ccc12` [Example 128, 2,2-dimethyl-3-(methyl(2-oxo-4-(o-tolyl)-2H-chromen-7-yl)amino)propanoic acid] displayed an IC50 of 0.03 µM.

With `Cc1ccccc1-c1cc(=O)oc2cc(NCc3nnn[nH]3)ccc12` [Example 184, 7-(((1H-tetrazol-5-yl)methyl)amino)-4-(o-tolyl)-2H-chromen-2-one], half-maximal inhibition (IC50) required 3 µM.

In turn, `CNC(=O)c1ccc2c(-c3ccccc3C)cc(=O)oc2c1` [Example 02, N-methyl-2-oxo-4-(o-tolyl)-2H-chromene-7-carboxamide] had an IC50 of 2 µM.

Consider `Cc1ccccc1-c1cc(=O)oc2cc(N[C@H](C)CC(=O)O)ccc12` [Example 148, (R)-3-((2-oxo-4-(o-tolyl)-2H-chromen-7-yl)amino)butanoic acid], for which the IC50 was found to be 2 µM.

`C[C@H](C(=O)N(C)C)N(C)c1ccc2c(-c3ccc(F)cc3Cl)cc(=O)oc2c1` [Example 46, (R)-2-((4-(2-chloro-4-fluorophenyl)-2-oxo-2H-chromen-7-yl)(methyl)amino)-N,N-dimethylpropanamide] yielded an IC50 of 0.05 µM. This IC50 lies about 40-fold lower than the previous one.

Consider `Cc1ccccc1-c1cc(=O)oc2cc(NCc3ccccn3)ccc12` [Example 164, 7-((pyridin-2-ylmethyl)amino)-4-(o-tolyl)-2H-chromen-2-one], for which the IC50 came out at 4 µM.

`Cc1ccccc1-c1cc(=O)oc2cc(CC(C)C(=O)N3CCC[C@H](S(N)(=O)=O)C3)ccc12` (single isomer, unassigned) [Example 97] registered an IC50 of 0.3 µM.

The compound `Cc1ccccc1-c1cc(=O)oc2cc(N(C)Cc3ccn[nH]3)ccc12` [Example 178, 7-(((1H-pyrazol-5-yl)methyl)(methyl)amino)-4-(o-tolyl)-2H-chromen-2-one] showed an IC50 of 0.05 µM.

In the case of `Cc1ccccc1-c1cc(=O)oc2cc(C(=O)Nc3ccccc3)ccc12` [Example 35, 2-oxo-N-phenyl-4-(o-tolyl)-2H-chromene-7-carboxamide], the IC50 was 2 µM.

As for `CNC(=O)CCN(C)c1ccc2c(-c3ccc(F)cc3Cl)cc(=O)oc2c1` [Example 138, 3-((4-(2-chloro-4-fluorophenyl)-2-oxo-2H-chromen-7-yl)(methyl)amino)-N-methylpropanamide], the IC50 stood at 2 µM. That is a single-digit micromolar value.

Regarding `Cc1ccccc1-c1cc(=O)oc2cc(CC(C)C(=O)N3CC[C@H](C(=O)O)C3)ccc12` (single isomer, unassigned) [Example 99], the IC50 was 0.4 µM.

Take `CC(=O)N(C)CC1CCN(C(=O)c2ccc3c(-c4ccccc4C)cc(=O)oc3c2)C1` (centres unmarked) [Example 205, N-methyl-N-((1-(2-oxo-4-(o-tolyl)-2H-chromene-7-carbonyl)pyrrolidin-3-yl)methyl)acetamide]: the IC50 is above 100 µM.

`Cc1ccccc1-c1cc(=O)oc2cc(N(C)Cc3ccccc3)ccc12` [Example 126, 7-[benzyl(methyl)amino]-4-(o-tolyl) chromen-2-one]: the IC50 came to 0.05 µM.

Turning to `Cc1cc(O[C@H](C)C(=O)N2CCCCC2)c2c(-c3ccc(F)cc3)cc(=O)oc2c1` [Example 161, (R)-4-(4-fluorophenyl)-7-methyl-5-((1-oxo-1-(piperidin-1-yl)propan-2-yl)oxy)-2H-chromen-2-one], the IC50 was above 100 µM.

Compound `CN(Cc1ccc2c(-c3ccc(F)cc3Cl)cc(=O)oc2c1)C(=O)N1CCCCC1` [Example 05, N-((4-(2-chloro-4-fluorophenyl)-2-oxo-2H-chromen-7-yl)methyl)-N-methylpiperidine-1-carboxamide] yielded an IC50 of 4 µM.

`Cc1ccccc1-c1cc(=O)oc2cc(NCc3ccn(C)n3)ccc12` [Example 119, 7-(((1-methyl-1H-pyrazol-3-yl)methyl)amino)-4-(o-tolyl)-2H-chromen-2-one] had an IC50 of 2 µM.

For `Cc1ccccc1-c1cc(=O)oc2cc(N(C)Cc3ccn(C)n3)ccc12` [Example 125, 7-(methyl((1-methyl-1H-pyrazol-3-yl)methyl)amino)-4-(o-tolyl)-2H-chromen-2-one], the IC50 came out at 0.1 µM.
